Assay results taken from patent US8158621B2, “Methods of treating or preventing autoimmune diseases with 2,4-pyrimidinediamine compounds” (Rigel Pharmaceuticals, Inc., priority 2002, dated 2012).
Read-outs that look alike come from different tables or passages of the source.

System: Human Jurkat T-cells (clone N)
Experiment: Jurkat T-cell activation (anti-TCR, CD69 upregulation)
Assay type: cell-based
Procedure, shortened: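 Jurkat cells in RPMI + 5% FBS preincubated with compound 1 h at 37 °C, then stimulated with anti-TCR C305 at 500 ng/ml for 20 h. CD69 surface expression stained with anti-CD69-APC and read by flow cytometry; IC50 versus solvent-only control.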

## CCOC(=O)c1cc2cc(Nc3ncc(F)c(Nc4ccc5[nH]c(C(=O)OCC)cc5c4)n3)ccc2[nH]1 [Compound R926616]
Homo sapiens, Jurkat
  IC50: 1.91 µM

## O=c1ccc2cc(Nc3ncc(F)c(Nc4ccc5oc(=O)ccc5c4)n3)ccc2o1 [Compound R926617]
Homo sapiens, Jurkat
  IC50: > 10 µM

## COCc1cc(=O)oc2cc(Nc3ncc(F)c(Nc4ccc5c(COC)cc(=O)oc5c4)n3)ccc12 [Compound R926620]
  IC50: > 10 µM

## Cc1cc(Nc2ncc(F)c(Nc3cc(C)c(O)cc3C)n2)c(C)cc1O [Compound R926623]
Homo sapiens, Jurkat
  IC50: 10 µM

## CCOC(=O)Cc1ccc(Nc2ncc(C#N)c(Nc3ccc(CC(=O)OCC)cc3)n2)cc1 [Compound R926662]
Homo sapiens, Jurkat
  IC50: > 10 µM

## Oc1ccc(Nc2ncc(F)c(Nc3ccc(O)c(Cl)c3)n2)cc1Cl [Compound R926675]
Homo sapiens, Jurkat
  IC50: 2.37 µM

## CCOC(=O)COc1ccc(Nc2ncc(F)c(Nc3ccc(OCC(=O)OCC)c(Cl)c3)n2)cc1Cl [Compound R926676]
  IC50: > 10 µM

## COCOc1ccc(Nc2nc(Nc3cccc(O)c3)ncc2F)c(F)c1 [Compound R926680]
  IC50: 5.7 µM

## Oc1ccc(Nc2ncc(F)c(Nc3ccc(O)c(F)c3)n2)cc1F [Compound R926681]
Homo sapiens, Jurkat
  IC50: 2 µM

## CC(=O)Nc1cccc(Nc2ncc(F)c(Nc3cccc(NC(C)=O)c3)n2)c1 [Compound R926682]
Homo sapiens, Jurkat
  IC50: 5.95 µM

## Oc1ccc(Nc2ncc(F)c(Nc3ccc(O)cc3F)n2)c(F)c1 [Compound R926683]
Homo sapiens, Jurkat
  IC50: 7.63 µM

## COc1cc(Nc2ncc(F)c(Nc3cc(OC)c(OC)c(OC)c3)n2)cc(OC)c1OC [Compound R926688]
Homo sapiens, Jurkat
  IC50: 3.78 µM

## COC(=O)c1cc2cc(Nc3ncc(F)c(Nc4ccc5c(c4)OCCO5)n3)ccc2o1 [Compound R926690]
Homo sapiens, Jurkat
  IC50: 13.4 µM

## O=C(O)c1cc2cc(Nc3ncc(F)c(Nc4ccc5c(c4)OCCO5)n3)ccc2o1 [Compound R926698]
Homo sapiens, Jurkat
  IC50: > 10 µM

## Oc1cccc(Nc2nc(Nc3ccc(OCCN4CCOCC4)cc3)ncc2F)c1 [Compound R926699]
  IC50: 1.86 µM

## CC(C)Oc1ccc(Nc2ncc(F)c(Nc3ccc(OC(C)C)cc3)n2)cc1 [Compound R926701]
Homo sapiens, Jurkat
  IC50: > 10 µM

## CC1(C)COC(COc2ccc(Nc3ncc(F)c(Nc4cccc(O)c4)n3)cc2)=N1 [Compound R926702]
  IC50: 18.6 µM

## CC(C)Oc1ccc(Nc2nc(Nc3ccc4oc(C(=O)N5CCCC5)cc4c3)ncc2F)cc1 [Compound R926703]
  IC50: 7.87 µM

## OCc1cc2cc(Nc3ncc(F)c(Nc4cccc(O)c4)n3)ccc2o1 [Compound R926707]
Homo sapiens, Jurkat
  IC50: 2.68 µM

## CNC(=O)COc1ccc(Nc2ncc(F)c(Nc3ccc4c(c3)OCCO4)n2)cc1 [Compound R926708]
  IC50: 3.3 µM

## Fc1cnc(Nc2ccc(OCCN3CCOCC3)cc2)nc1Nc1ccc2c(c1)OCCO2 [Compound R926709]
  IC50: 2.47 µM

## Oc1cccc(Nc2ncc(F)c(Nc3ccc(OCCN4CCOCC4)cc3)n2)c1 [Compound R926710]
  IC50: 4.27 µM

## Fc1cnc(Nc2ccc3c(c2)OCCO3)nc1Nc1ccc(OCCN2CCOCC2)cc1 [Compound R926711]
  IC50: 3.79 µM

## CNC(=O)COc1ccc(Nc2ncc(F)c(Nc3ccc(C(C)(C)C)cc3)n2)cc1 [Compound R926712]
  IC50: 6.35 µM

## CNC(=O)COc1cccc(Nc2ncc(F)c(Nc3ccc(C(C)(C)C)cc3)n2)c1 [Compound R926714]
  IC50: 5.63 µM

## O=S(=O)(c1ccc(Nc2ncc(F)c(Nc3ccc4c(c3)OCCO4)n2)cc1)N1CCCC1 [Compound R926716]
Homo sapiens, Jurkat
  IC50: 3.62 µM

## Fc1cnc(NCCCN2CCN(Cc3c(F)cccc3Cl)CC2)nc1Nc1ccc2c(c1)OCCO2 [Compound R926717]
Homo sapiens, Jurkat
  IC50: 3.75 µM

## CN(C)C(=O)c1cc2cc(Nc3ncc(F)c(Nc4cccc(O)c4)n3)ccc2o1 [Compound R926718]
  IC50: 12.4 µM

## COC(=O)C1Cc2cc(N(c3ccc(C(C)(C)C)cc3)c3ncc(F)c(N)n3)ccc2O1 (stereo not drawn) [Compound R926719]
Homo sapiens, Jurkat
  IC50: > 10 µM

## CC(C)(C)c1ccc(Nc2nc(Nc3ccc4c(c3)CC(C(=O)O)O4)ncc2F)cc1 (stereo not drawn) [Compound R926720]
Homo sapiens, Jurkat
  IC50: > 10 µM

## Fc1cnc(Nc2ccc3c(c2)OCCO3)nc1NCc1csc2ccc(Cl)cc12 [Compound R926721]
Homo sapiens, Jurkat
  IC50: 3.46 µM

## Oc1cccc(Nc2ncc(F)c(NCc3csc4ccc(Cl)cc34)n2)c1 [Compound R926722]
Homo sapiens, Jurkat
  IC50: > 10 µM

## Oc1cccc(Nc2ncc(F)c(NCCSCc3c(F)cccc3Cl)n2)c1 [Compound R926724]
Homo sapiens, Jurkat
  IC50: > 10 µM

## CN(CCO)C(=O)c1cc2cc(Nc3ncc(F)c(Nc4cccc(O)c4)n3)ccc2o1 [Compound R926725]
  IC50: 3.37 µM

## CC(C)(C)c1ccc(Nc2nc(Nc3cccc(OCC(=O)O)c3)ncc2F)cc1 [Compound R926726]
  IC50: > 10 µM

## CCOC(=O)CSc1ccc(Nc2ncc(F)c(Nc3ccc4c(c3)OCCO4)n2)cn1 [Compound R926727]
  IC50: > 10 µM

## CC(C)(C)c1ccc(Nc2nc(Nc3cccc(OCCO)c3)ncc2F)cc1 [Compound R926728]
  IC50: > 10 µM

## CNC(=O)COc1cccc(Nc2ncc(F)c(Nc3ccc(OC(C)C)cc3)n2)c1 [Compound R926730]
  IC50: 1.84 µM

## CC(C)Oc1ccc(Nc2nc(Nc3cccc(OCC(=O)O)c3)ncc2F)cc1 [Compound R926731]
  IC50: > 10 µM

## CNC(=O)COc1cccc(Nc2ncc(F)c(Nc3ccc4c(c3)OC(F)(F)C(F)(F)O4)n2)c1 [Compound R926732]
  IC50: 5.26 µM

## CNC(=O)COc1cccc(Nc2ncc(F)c(Nc3ccc(OC)c(OC)c3)n2)c1 [Compound R926733]
  IC50: 3.59 µM

## COc1ccc(Nc2nc(Nc3cccc(OCC(=O)NCC(O)CO)c3)ncc2F)cc1OC (stereo not drawn) [Compound R926734]
  IC50: 11.3 µM

## OCCOc1cccc(Nc2ncc(CO)c(Nc3cccc(O)c3)n2)c1 [Compound R926735]
  IC50: 5.98 µM

## CNC(=O)COc1cccc(Nc2ncc(F)c(Nc3cccc(OC)c3)n2)c1 [Compound R926738]
  IC50: 2.22 µM

## COc1cccc(Nc2nc(Nc3cccc(OCC(=O)NCC(O)CO)c3)ncc2F)c1 (stereo not drawn) [Compound R926739]
  IC50: 2.09 µM

## CCOC(=O)COc1ccc(Nc2ncc(F)c(Nc3ccc4c(c3)OCCO4)n2)cn1 [Compound R926740]
  IC50: > 10 µM

## CNC(=O)COc1cccc(Nc2nc(Nc3cccc(O)c3)ncc2C(F)(F)F)c1 [Compound R926741]
  IC50: 4.59 µM

## Cc1onc(-c2ccccc2)c1Nc1ncc(F)c(Nc2ccc3c(c2)OCCO3)n1 [Compound R926743]
Homo sapiens, Jurkat
  IC50: > 10 µM

## Cc1noc(C)c1Nc1ncc(F)c(Nc2ccc3c(c2)OCCO3)n1 [Compound R926744]
Homo sapiens, Jurkat
  IC50: > 10 µM

## O=C(COc1cccc(Nc2ncc(F)c(Nc3cccc(O)c3)n2)c1)NCC(O)CO (stereo not drawn) [Compound R926746]
  IC50: 3.7 µM

## NC(=O)COc1cccc(Nc2ncc(F)c(Nc3ccc4c(c3)OCCO4)n2)c1 [Compound R926747]
  IC50: 3.28 µM

## Fc1cnc(Nc2ccc3[nH]ccc3c2)nc1Nc1ccc2c(c1)OCCO2 [Compound R926748]
Homo sapiens, Jurkat
  IC50: 2.77 µM

## Fc1cnc(Nc2ccc3cc[nH]c3c2)nc1Nc1ccc2c(c1)OCCO2 [Compound R926750]
Homo sapiens, Jurkat
  IC50: 0.535 µM

## Oc1cccc(Nc2nc(Nc3ccc4cc[nH]c4c3)ncc2F)c1 [Compound R926751]
Homo sapiens, Jurkat
  IC50: 5.59 µM

## CNC(=O)COc1cc(Nc2ncc(F)c(Nc3ccc4cc[nH]c4c3)n2)ccc1OC [Compound R926752]
  IC50: 1.73 µM

## CNC(=O)COc1cccc(Nc2ncc(F)c(Nc3ccc(C)c(O)c3)n2)c1 [Compound R926753]
  IC50: 0.393 µM

## CNC(=O)COc1cccc(Nc2ncc(F)c(Nc3cccc(B(O)O)c3)n2)c1 [Compound R926754]
  IC50: 13.2 µM

## OB(O)c1cccc(Nc2nc(Nc3cccc(O)c3)ncc2F)c1 [Compound R926755]
Homo sapiens, Jurkat
  IC50: 7.36 µM

## CNC(=O)COc1cc(Nc2ncc(F)c(Nc3cccc(O)c3)n2)ccc1C [Compound R926757]
  IC50: 2.74 µM

## CNC(=O)COc1cc(Nc2ncc(F)c(Nc3ccc(C)c(O)c3)n2)ccc1C [Compound R926759]
  IC50: 1.71 µM

## CNC(=O)COc1cc(Nc2ncc(F)c(Nc3ccc(C)c(OCC(=O)NC)c3)n2)ccc1C [Compound R926760]
  IC50: 10.2 µM

## COc1cc(Nc2ncc(F)c(Nc3cccc(O)c3)n2)cc(OC)c1OC [Compound R926761]
Homo sapiens, Jurkat
  IC50: 0.694 µM

## COc1cc(Nc2ncc(F)c(Nc3ccc4c(c3)OCCO4)n2)cc(OC)c1OC [Compound R926762]
Homo sapiens, Jurkat
  IC50: 0.703 µM

## CC(C)(CO)NC(=O)COc1cccc(Nc2ncc(F)c(Nc3ccc4c(c3)OCCO4)n2)c1 [Compound R926764]
  IC50: 2.17 µM

## O=C(COc1cccc(Nc2ncc(F)c(Nc3ccc4c(c3)OCCO4)n2)c1)NC1CCCCC1 [Compound R926765]
  IC50: 8 µM

## CN(CCO)C(=O)COc1cccc(Nc2ncc(F)c(Nc3ccc4c(c3)OCCO4)n2)c1 [Compound R926766]
  IC50: 4.24 µM

## O=C(c1cc2cc(Nc3ncc(F)c(Nc4ccc5c(c4)OCCO5)n3)ccc2o1)N1CCCNCC1 [Compound R926767]
  IC50: 2.67 µM

## O=C(c1cc2cc(Nc3ncc(F)c(Nc4ccc5c(c4)OCCO5)n3)ccc2o1)N1CCCNCC1 [Compound R926768]
  IC50: 0.973 µM

## Oc1cccc(Nc2nc(Nc3ccc4oc(CN5CCNCC5)cc4c3)ncc2F)c1 [Compound R926769]
  IC50: 2.79 µM

## Oc1cccc(Nc2nc(Nc3ccc4oc(CN5CCNCC5)cc4c3)ncc2F)c1 [Compound R926770]
  IC50: 0.891 µM

## CN(C)CCOc1cccc(Nc2ncc(F)c(Nc3ccc4c(c3)OCCO4)n2)c1 [Compound R926771]
Homo sapiens, Jurkat
  IC50: 3.47 µM

## O=C(COc1cccc(Nc2ncc(F)c(Nc3cccc(O)c3)n2)c1)N1CCNCC1 [Compound R926772]
  IC50: 2.04 µM

## O=C(COc1cccc(Nc2ncc(F)c(Nc3cccc(O)c3)n2)c1)N1CCNCC1 [Compound R926773]
  IC50: 1.84 µM

## CCOC(=O)COc1cccc(Nc2nc(Nc3ccc4c(c3)OCCO4)ncc2F)c1 [Compound R926774]
  IC50: 12.7 µM

## CCOC(=O)COc1cccc(Nc2nc(Nc3cccc(O)c3)ncc2F)c1 [Compound R926775]
  IC50: > 10 µM

## CNC(=O)COc1cccc(Nc2nc(Nc3ccc4c(c3)OCCO4)ncc2F)c1 [Compound R926776]
  IC50: 12.5 µM

## Oc1cccc(Nc2nc(Nc3ccc(-n4cnc(Cl)c4Cl)cc3)ncc2F)c1 [Compound R926777]
Homo sapiens, Jurkat
  IC50: > 10 µM

## O=C(COc1cccc(Nc2ncc(F)c(Nc3ccc4c(c3)OCCO4)n2)c1)N(CCO)CCO [Compound R926781]
  IC50: 9.81 µM
